A value given as a limit tells only on which side of the number the result lay.

One may read the melting point as the temperature of the solid-liquid transition. For the compound `CCCCCS(=O)(=O)NC(=O)/C=C/c1ccc(OCCOC)cc1OCc1ccc(Cl)cc1Cl`, the melting point was 138 °C.
As for `CS(=O)(=O)c1ccc(-c2oc(C(=O)O)cc(=O)c2-c2ccc(Cl)cc2)cc1`, the melting point was 236 °C.
Then `C=C(C)C(CC=C(C)C)CC12CC(CC=C(C)C)C(C)(C)C(CC=C(C)C)(C(=O)C(C(=O)c3ccc(O)c(O)c3)=C1O)C2=O` (stereo not given), with 126 °C.
Then `Cc1c(OCC(F)(F)F)ccnc1CSc1nc2cc(OC(F)F)ccc2n1N`, with 179 to 180 °C; and `O=C1OC2CC1(O)CC(O)C2O` (stereo not given), with 184 to 188 °C; and `CS(=O)(=O)OCc1cc(-c2ccc(OCc3ccccc3)cc2)no1`, with 110 to 112 °C.
Under `NC(=O)c1ncc(Cl)cc1N` stands 152 to 156 °C; under `CN1CCN(S(=O)(=O)Nc2ccc(-c3nc(-c4ccc(F)cc4)c(-c4ccncc4)[nH]3)cc2)CC1`, 74 to 76 °C.
Compound `Cc1cc2ccc(=O)oc2cc1O` registered a melting point of 253 to 254 °C.
As for `O=C(NC1=NN(c2ccc(Cl)c(Cl)c2)CC1)C(F)(F)F`, the melting point is 181 to 183 °C.
Under `O=C(Nc1cc(Cl)c(N2CCCC2)c(Cl)c1)c1ccc(F)c(OCc2cccnc2)c1` stands 163 to 167 °C.
`CC(C)(OCc1nn(Cc2ccccc2)c2ccc(Br)cc12)C(=O)O` had a melting point of 168 to 170 °C.
Then `CC12CC(CCCCCO)C3c4ccc(O)cc4CCC3C1CCC2O` (stereo not given), with 152 °C; and `CC(C)Oc1ccc(-c2nn(C(C)c3oc4ccccc4c(=O)c3-c3cccc(F)c3)c3ncnc(N)c23)cc1` (stereo not given), with 224 to 226 °C; and `O=C(NC12CC3CC(CC(C3)C1)C2)n1cc(F)c(=O)[nH]c1=O`, with over 260 °C.
With `O=c1n(CO)c2ccccc2n1CO`, the melting point is 157 to 161 °C.
Under `NN(CCCCO)c1nc2ccccc2o1` stands 87 to 90 °C; under `CCOC(=O)N1CCN(C(=S)Cl)CC1`, 107 to 111 °C.
Then `Nc1c(Br)cc(Cl)cc1C(=O)c1ccccc1Cl`, with 100 to 101 °C; and `CCc1noc(NC(=O)N2CCN(c3ccnc(-c4cccc(F)c4F)n3)CC2)c1C`, with 188 to 189 °C.
On to `CN(C)N=Nc1cc(-c2ccccc2)sc1C(N)=O`, for which the melting point was in the range of 220 to 222 °C.
Under `CCOC(=O)c1cc2cc3[nH]c(=O)[nH]c3cc2[nH]1` stands 196 to 197 °C.
Then `CN1CC(OC(=O)c2ccccc2)N(N2CC=C(C(C)(C)C)O2)C1=O` (stereo not given), with 165 to 166 °C.
Compound `CCOC(=O)c1ccc(OC(=O)c2ccc(C(=O)Oc3ccc(C(=O)OCC)cc3)cc2)cc1` registered a melting point of 187 to 189 °C.
Then `CCOc1c(OC)c(OC)cc(C(=O)OC)c1-c1c(C(=O)OC)cc(OC)c2c1OCO2`, with 93 to 94 °C.
Then `O=[N+]([O-])c1c(SCc2ccccc2)ccc2ccncc12`, with 151 to 153 °C.
In the case of `Clc1ccc2c3c(cccc13)C(NCCCCCn1ccnc1)=N2`, the melting point lay within 132 to 134 °C.
Then `Cc1cc([N+](=O)[O-])ccc1C(=O)N=CN(C)C`, with 118 to 121 °C; and `COCCCNCCCc1ccc(-c2cnc(N)c(C(=O)Nc3cccnc3)n2)cc1`, with 113 °C; and `CCOc1ccc(C(=O)CC(C(=O)O)N2CCOCC2)cc1OC` (stereo not given), with 157 °C.
`O=c1cc2c(nn1-c1ccccc1)-c1cc(Cl)ccc1CC2` gave a melting point of 184 to 186 °C.
In the case of `COc1ccnc(C(=O)c2[nH]c3cc(Cl)ccc3c2NC(=O)CC(C)C)c1`, the melting point fell in the range of 162 to 163 °C.
The compound `COC(=O)C1CCN2C(=O)C(=O)c3cc(Cl)cc1c32` (stereo not given) gave a melting point of 132 to 133 °C.
As to `O=C(O)CSC(CCCCNS(=O)(=O)c1ccc(Cl)cc1)CCCc1cccnc1` (stereo not given), the melting point was 78 to 80 °C.
Then `COc1cc(-n2ccc(C)n2)ccc1C(=O)N1Cc2ccc(CN(C)C)n2Cc2ccccc21`, with 196 to 198 °C.

The values above are taken from a melting point compilation (Tetko et al.; mined from patent text by program, amines drawn as free bases though some values may be those of a salt).
